Assay results: patent EP0339465A2, “Antibacterial composition for oral administration” (MEIJI SEIKA KAISHA LTD., priority 1988, dated 1989)

Test: Stability in aqueous solution
Format: physicochemical
Conditions: aqueous solution of a pH value of 6 or above

- stability in an aqueous solution: unstable
SMILES: CO/N=C(\C(=O)N[C@@H]1C(=O)N2C(C(=O)OCOC(=O)C(C)(C)C)=C(/C=C\c3scnc3C)CS[C@H]12)c1csc(N)n1 [substance ME1207, pivaloyloxymethyl-(6R,7R)-7[(Z)-2-(2-aminothiazol-4-yl)-2-methoxyiminoacetamide]-3-[(Z)-2-(4-methylthiazol-5-yl)ethenyl]cephem-4-carboxylate]
